Source: the kinase profiling compilation of Christmann-Franck et al. (2016)

Columns and labels:
Experiment in all cases: KINOMEscan competition binding
Conditions in all cases: compound 1.0 µM
[1] = target: HIPK3 (human) (UniProt Q9H422)
[2] = target: TAOK2 (human) (UniProt Q9UL54)
[3] = target: NIM1 (human) (UniProt Q8IY84)
[4] = test system: BRAF (human), P15056 [V600E]
[5] = target: AURKC (human) (UniProt Q9UQB9)
[6] = target: RET (human) (UniProt P07949)
[7] = target: RPS6KA5 KD2 (human) (UniProt O75582)
RPS6KA5 KD2 (human), sequence (O75582 whole entry, looked up): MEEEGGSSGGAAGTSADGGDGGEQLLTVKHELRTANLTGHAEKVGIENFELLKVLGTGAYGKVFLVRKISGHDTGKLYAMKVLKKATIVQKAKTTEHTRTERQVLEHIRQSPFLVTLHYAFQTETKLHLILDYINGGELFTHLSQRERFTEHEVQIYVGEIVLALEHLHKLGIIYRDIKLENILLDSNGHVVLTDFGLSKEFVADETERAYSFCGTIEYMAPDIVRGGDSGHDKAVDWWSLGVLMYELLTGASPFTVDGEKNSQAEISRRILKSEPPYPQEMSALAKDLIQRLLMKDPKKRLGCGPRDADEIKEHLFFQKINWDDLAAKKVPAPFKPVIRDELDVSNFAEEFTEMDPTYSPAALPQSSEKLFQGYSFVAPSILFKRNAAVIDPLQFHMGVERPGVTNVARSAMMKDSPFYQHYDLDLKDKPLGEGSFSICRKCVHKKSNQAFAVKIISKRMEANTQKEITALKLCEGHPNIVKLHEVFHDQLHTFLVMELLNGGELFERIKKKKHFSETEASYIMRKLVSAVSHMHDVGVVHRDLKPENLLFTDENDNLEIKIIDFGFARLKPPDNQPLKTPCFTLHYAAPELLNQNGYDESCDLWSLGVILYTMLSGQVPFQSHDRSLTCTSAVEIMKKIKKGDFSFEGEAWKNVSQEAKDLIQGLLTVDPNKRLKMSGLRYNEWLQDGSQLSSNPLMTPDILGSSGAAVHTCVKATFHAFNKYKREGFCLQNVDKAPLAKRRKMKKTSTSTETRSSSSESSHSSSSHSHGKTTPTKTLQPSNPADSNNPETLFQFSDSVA

[8] = target: PI4KB (human) (UniProt Q9UBF8)
[9] = target: ANKK1 (human) (UniProt Q8NFD2)
[10] = target: CDK15 (human) (UniProt Q96Q40)
[11] = test system: EGFR (human), P00533 [A750P; 747-749 del]
[12] = target: CSF1R (human) (UniProt P07333)
[13] = target: MAP3K13 (human) (UniProt O43283)
[14] = target: FLT1 (human) (UniProt P17948)
FLT1 (human), sequence (P17948 whole entry, looked up): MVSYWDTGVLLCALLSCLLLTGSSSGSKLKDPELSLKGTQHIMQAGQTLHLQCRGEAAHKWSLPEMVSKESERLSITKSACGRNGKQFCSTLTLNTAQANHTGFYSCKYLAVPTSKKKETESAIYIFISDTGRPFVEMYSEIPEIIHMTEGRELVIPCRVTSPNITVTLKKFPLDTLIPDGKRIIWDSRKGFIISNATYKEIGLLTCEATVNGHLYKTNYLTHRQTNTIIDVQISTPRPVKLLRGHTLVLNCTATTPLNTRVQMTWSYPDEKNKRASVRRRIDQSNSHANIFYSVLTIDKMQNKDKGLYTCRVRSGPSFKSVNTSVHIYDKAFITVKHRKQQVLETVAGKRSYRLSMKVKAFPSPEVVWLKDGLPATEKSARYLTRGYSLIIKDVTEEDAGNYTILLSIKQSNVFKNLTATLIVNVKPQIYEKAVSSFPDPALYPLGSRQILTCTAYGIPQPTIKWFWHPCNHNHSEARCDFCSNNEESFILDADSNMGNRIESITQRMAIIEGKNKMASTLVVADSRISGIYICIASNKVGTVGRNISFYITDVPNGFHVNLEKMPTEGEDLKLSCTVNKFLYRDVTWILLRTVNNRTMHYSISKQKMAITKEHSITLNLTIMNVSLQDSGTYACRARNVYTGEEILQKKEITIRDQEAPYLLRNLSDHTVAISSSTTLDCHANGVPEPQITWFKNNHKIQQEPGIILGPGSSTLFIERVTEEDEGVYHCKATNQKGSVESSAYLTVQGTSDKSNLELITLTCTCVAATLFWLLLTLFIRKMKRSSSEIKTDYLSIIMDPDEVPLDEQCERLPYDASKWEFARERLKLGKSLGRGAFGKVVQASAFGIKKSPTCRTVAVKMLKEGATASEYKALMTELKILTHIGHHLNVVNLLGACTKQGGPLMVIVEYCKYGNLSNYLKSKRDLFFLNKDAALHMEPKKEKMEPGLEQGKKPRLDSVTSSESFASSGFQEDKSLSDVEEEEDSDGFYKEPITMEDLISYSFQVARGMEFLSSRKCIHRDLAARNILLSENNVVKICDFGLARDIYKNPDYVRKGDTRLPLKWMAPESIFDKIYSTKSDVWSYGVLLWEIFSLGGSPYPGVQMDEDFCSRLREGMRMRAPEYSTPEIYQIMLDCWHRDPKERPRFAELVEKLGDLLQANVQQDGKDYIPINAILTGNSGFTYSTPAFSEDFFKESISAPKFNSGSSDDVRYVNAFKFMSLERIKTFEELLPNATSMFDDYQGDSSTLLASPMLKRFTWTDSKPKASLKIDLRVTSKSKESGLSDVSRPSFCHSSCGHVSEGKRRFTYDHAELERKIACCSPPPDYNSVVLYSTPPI

[15] = target: HIPK4 (human) (UniProt Q8NE63)
[16] = target: ACVR1B (human) (UniProt P36896)
[17] = target: IGF1R (human) (UniProt P08069)
[18] = target: PIK3C2B (human) (UniProt O00750)
[19] = target: SRPK1 (human) (UniProt Q96SB4)
[20] = target: DYRK1B (human) (UniProt Q9Y463)
DYRK1B (human), sequence (Q9Y463 whole entry, looked up): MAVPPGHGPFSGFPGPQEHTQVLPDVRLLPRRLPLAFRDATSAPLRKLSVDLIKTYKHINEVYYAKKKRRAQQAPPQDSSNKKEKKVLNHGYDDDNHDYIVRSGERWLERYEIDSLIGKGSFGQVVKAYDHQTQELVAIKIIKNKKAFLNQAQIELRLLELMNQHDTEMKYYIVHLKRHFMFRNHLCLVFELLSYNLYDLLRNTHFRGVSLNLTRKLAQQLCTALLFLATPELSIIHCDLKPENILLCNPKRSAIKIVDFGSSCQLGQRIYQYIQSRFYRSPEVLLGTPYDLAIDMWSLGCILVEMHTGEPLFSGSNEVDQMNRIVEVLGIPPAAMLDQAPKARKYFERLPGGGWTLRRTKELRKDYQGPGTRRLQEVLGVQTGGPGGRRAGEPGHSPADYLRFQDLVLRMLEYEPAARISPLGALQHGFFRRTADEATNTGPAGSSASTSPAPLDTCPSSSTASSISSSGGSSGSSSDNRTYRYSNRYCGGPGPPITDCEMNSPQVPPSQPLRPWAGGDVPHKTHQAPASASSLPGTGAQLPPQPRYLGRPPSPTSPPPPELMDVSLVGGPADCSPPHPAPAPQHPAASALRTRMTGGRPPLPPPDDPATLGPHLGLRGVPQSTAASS

[21] = target: MAPK3 (human) (UniProt P27361)
[22] = target: ERBB4 (human) (UniProt Q15303)
[23] = target: INSRR (human) (UniProt P14616)
[24] = target: TGFBR1 (human) (UniProt P36897)
[25] = target: EPHA6 (human) (UniProt Q9UF33)
[26] = target: PTK2 (human) (UniProt Q05397)
[27] = target: PIP5K1A (human) (UniProt Q99755)
[28] = target: NUAK1 (human) (UniProt O60285)
[29] = target: MARK3 (human) (UniProt P27448)
[30] = target: ROCK1 (human) (UniProt Q13464)
ROCK1 (human), sequence (Q13464 whole entry, looked up): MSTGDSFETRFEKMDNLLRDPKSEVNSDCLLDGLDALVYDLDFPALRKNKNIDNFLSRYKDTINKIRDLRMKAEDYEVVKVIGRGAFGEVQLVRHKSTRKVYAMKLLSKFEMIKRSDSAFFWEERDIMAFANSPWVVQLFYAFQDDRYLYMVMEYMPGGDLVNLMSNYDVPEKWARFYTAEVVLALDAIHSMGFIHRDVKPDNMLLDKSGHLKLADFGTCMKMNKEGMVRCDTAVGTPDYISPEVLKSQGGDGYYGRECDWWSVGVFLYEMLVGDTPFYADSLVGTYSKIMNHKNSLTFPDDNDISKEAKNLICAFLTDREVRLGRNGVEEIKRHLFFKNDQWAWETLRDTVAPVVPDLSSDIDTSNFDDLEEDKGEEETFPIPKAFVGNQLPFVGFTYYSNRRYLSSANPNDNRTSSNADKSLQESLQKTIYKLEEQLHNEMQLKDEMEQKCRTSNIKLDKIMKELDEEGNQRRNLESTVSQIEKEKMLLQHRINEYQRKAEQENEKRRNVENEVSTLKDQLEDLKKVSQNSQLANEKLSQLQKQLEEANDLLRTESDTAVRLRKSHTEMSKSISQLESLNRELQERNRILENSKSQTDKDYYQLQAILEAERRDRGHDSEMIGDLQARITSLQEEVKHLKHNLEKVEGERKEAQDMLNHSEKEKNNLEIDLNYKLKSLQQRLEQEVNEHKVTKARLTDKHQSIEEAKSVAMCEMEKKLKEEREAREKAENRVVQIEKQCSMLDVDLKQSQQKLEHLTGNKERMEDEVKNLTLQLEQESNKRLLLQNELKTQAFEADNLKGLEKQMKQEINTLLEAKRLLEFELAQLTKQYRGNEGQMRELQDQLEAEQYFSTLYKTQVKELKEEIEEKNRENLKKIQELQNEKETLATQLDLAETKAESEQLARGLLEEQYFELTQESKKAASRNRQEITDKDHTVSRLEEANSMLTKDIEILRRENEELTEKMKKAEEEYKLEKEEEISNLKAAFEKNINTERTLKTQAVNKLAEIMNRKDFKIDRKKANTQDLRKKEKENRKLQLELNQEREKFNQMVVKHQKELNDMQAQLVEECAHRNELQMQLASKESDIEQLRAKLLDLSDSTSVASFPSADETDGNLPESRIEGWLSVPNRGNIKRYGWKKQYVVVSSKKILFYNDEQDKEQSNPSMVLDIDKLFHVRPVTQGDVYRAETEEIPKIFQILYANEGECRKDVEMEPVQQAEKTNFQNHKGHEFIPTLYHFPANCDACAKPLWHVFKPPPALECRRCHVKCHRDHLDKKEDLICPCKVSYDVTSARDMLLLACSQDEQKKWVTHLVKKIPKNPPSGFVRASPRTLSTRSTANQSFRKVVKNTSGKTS

[31] = target: STK32C (human) (UniProt Q86UX6)
[32] = target: NEK5 (human) (UniProt Q6P3R8)
[33] = test system: MET (human), P08581 [Y1235D]
[34] = target: SLK (human) (UniProt Q9H2G2)
[35] = target: TAOK3 (human) (UniProt Q9H2K8)
TAOK3 (human), sequence (Q9H2K8 whole entry, looked up): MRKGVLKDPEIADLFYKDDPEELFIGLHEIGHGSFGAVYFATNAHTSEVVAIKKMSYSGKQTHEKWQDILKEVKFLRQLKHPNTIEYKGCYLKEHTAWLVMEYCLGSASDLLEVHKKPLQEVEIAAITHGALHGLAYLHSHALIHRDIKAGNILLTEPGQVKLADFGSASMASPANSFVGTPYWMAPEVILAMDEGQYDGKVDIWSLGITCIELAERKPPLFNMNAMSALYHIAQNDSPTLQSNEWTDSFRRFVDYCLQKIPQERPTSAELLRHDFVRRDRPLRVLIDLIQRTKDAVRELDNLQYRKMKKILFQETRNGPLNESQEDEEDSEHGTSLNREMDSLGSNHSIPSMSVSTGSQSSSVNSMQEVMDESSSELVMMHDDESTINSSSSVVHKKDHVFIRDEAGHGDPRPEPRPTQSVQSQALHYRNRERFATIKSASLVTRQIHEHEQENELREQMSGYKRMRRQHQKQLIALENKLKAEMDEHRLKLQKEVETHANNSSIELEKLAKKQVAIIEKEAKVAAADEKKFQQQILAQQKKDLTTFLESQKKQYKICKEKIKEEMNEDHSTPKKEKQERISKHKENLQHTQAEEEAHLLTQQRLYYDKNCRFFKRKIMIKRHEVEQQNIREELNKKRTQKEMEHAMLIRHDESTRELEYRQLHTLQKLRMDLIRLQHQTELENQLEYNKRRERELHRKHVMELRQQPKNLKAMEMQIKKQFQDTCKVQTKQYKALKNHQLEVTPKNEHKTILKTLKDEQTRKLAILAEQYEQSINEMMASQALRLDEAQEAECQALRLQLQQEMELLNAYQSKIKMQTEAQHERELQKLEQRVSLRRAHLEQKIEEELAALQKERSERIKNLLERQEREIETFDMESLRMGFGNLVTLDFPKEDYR

[36] = target: GRK4 (human) (UniProt P32298)
[37] = target: PIM3 (human) (UniProt Q86V86)
[38] = target: MAP2K7 (human) (UniProt O14733)
[39] = target: STK10 (human) (UniProt O94804)
[40] = target: IKBKE (human) (UniProt Q14164)
[41] = target: SNRK (human) (UniProt Q9NRH2)
[42] = target: MAP3K1 (human) (UniProt Q13233)
[43] = test system: EGFR (human), P00533 [T790M]

With CN(C)C/C=C/C(=O)Nc1cccc(C(=O)Nc2ccc(Nc3nccc(-c4cccnc4)n3)cc2)c1 the kinase still bound, per cent of control [1] was 5.7%, the kinase still bound, per cent of control [2] was 54% and the kinase still bound, per cent of control [3] was 100%. For the same molecule, the kinase still bound, per cent of control [4] was 60%, the kinase still bound, per cent of control [5] was 33% and the kinase still bound, per cent of control [6] was 100%. For the same molecule, the kinase still bound, per cent of control [7] was 100%, the kinase still bound, per cent of control [8] was 71% and the kinase still bound, per cent of control [9] was 50%. The kinase still bound, per cent of control [10] was 96%, the kinase still bound, per cent of control [11] was 87% and the kinase still bound, per cent of control [12] was 52%. The kinase still bound, per cent of control [13] was 100%, the kinase still bound, per cent of control [14] was 75% and the kinase still bound, per cent of control [15] was 18%. The kinase still bound, per cent of control [16] was 86%, the kinase still bound, per cent of control [17] was 100% and the kinase still bound, per cent of control [18] was 100%. The kinase still bound, per cent of control [19] was 50%, the kinase still bound, per cent of control [20] was 52% and the kinase still bound, per cent of control [21] was 100%. It also gave a kinase still bound, per cent of control [22] of 100%, a kinase still bound, per cent of control [23] of 100% and a kinase still bound, per cent of control [24] of 86%. The kinase still bound, per cent of control [25] was 95%, the kinase still bound, per cent of control [26] was 100% and the kinase still bound, per cent of control [27] was 18%. For the same molecule, the kinase still bound, per cent of control [28] was 37%, the kinase still bound, per cent of control [29] was 100% and the kinase still bound, per cent of control [30] was 22%. It also gave a kinase still bound, per cent of control [31] of 98%, a kinase still bound, per cent of control [32] of 7.8% and a kinase still bound, per cent of control [33] of 100%. It also gave a kinase still bound, per cent of control [34] of 100%, a kinase still bound, per cent of control [35] of 94% and a kinase still bound, per cent of control [36] of 32%. For the same molecule, the kinase still bound, per cent of control [37] was 92%, the kinase still bound, per cent of control [38] was 100% and the kinase still bound, per cent of control [39] was 100%. For the same molecule, the kinase still bound, per cent of control [40] was 98%, the kinase still bound, per cent of control [41] was 90% and the kinase still bound, per cent of control [42] was 85%. The kinase still bound, per cent of control [43] was 91%.
Molecule CN(C)C/C=C/C(=O)Nc1cccc(C(=O)Nc2ccc(Nc3nccc(-c4c(-c5ccccc5)nn5ccccc45)n3)cc2)c1 has a kinase still bound, per cent of control [1] of 100%, a kinase still bound, per cent of control [2] of 31% and a kinase still bound, per cent of control [3] of 100%. For the same molecule, the kinase still bound, per cent of control [4] was 21%, the kinase still bound, per cent of control [5] was 84% and the kinase still bound, per cent of control [6] was 8.3%. The kinase still bound, per cent of control [7] was 97%, the kinase still bound, per cent of control [8] was 69% and the kinase still bound, per cent of control [9] was 73%. It also gave a kinase still bound, per cent of control [10] of 100%, a kinase still bound, per cent of control [11] of 1.6% and a kinase still bound, per cent of control [12] of 6%. It also gave a kinase still bound, per cent of control [13] of 100%, a kinase still bound, per cent of control [14] of 9.3% and a kinase still bound, per cent of control [15] of 70%. For the same molecule, the kinase still bound, per cent of control [16] was 8.4%, the kinase still bound, per cent of control [17] was 100% and the kinase still bound, per cent of control [18] was 100%. The kinase still bound, per cent of control [19] was 90%, the kinase still bound, per cent of control [20] was 100% and the kinase still bound, per cent of control [21] was 100%. For the same molecule, the kinase still bound, per cent of control [22] was 5.4%, the kinase still bound, per cent of control [23] was 97% and the kinase still bound, per cent of control [24] was 12%. For the same molecule, the kinase still bound, per cent of control [25] was 32%, the kinase still bound, per cent of control [26] was 95% and the kinase still bound, per cent of control [27] was 67%. For the same molecule, the kinase still bound, per cent of control [28] was 83%, the kinase still bound, per cent of control [29] was 75% and the kinase still bound, per cent of control [30] was 59%. For the same molecule, the kinase still bound, per cent of control [31] was 99%, the kinase still bound, per cent of control [32] was 98% and the kinase still bound, per cent of control [33] was 59%. It also gave a kinase still bound, per cent of control [34] of 18%, a kinase still bound, per cent of control [35] of 42% and a kinase still bound, per cent of control [36] of 93%. It also gave a kinase still bound, per cent of control [37] of 94%, a kinase still bound, per cent of control [38] of 89% and a kinase still bound, per cent of control [39] of 23%. It also gave a kinase still bound, per cent of control [40] of 95%, a kinase still bound, per cent of control [41] of 100% and a kinase still bound, per cent of control [42] of 96%. For the same molecule, the kinase still bound, per cent of control [43] was 11%.
